target: T1, Calcium/calmodulin-dependent protein kinase type II subunit delta (Homo sapiens, UniProt Q13557); assay: Inhibition of CaMK2delta
T1 sequence (Q13557 whole entry): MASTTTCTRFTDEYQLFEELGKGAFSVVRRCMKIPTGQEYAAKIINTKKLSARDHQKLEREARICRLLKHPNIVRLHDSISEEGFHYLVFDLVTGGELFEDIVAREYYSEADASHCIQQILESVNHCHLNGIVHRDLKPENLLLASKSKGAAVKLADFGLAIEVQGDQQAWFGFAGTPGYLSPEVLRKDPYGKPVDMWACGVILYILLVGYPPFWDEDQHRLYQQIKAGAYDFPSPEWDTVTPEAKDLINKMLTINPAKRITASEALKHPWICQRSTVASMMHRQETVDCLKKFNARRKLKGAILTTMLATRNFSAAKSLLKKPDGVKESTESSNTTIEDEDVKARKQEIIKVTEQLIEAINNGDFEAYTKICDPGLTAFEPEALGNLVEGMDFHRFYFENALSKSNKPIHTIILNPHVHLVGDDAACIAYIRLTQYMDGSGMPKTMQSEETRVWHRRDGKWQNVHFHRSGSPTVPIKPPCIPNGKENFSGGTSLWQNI

Compared with `CNCCc1cn(C2=C(c3c[nH]c4ccc(C(=O)N(C)C)cc34)C(=O)NC2=O)c2ccccc12`, `CNCCc1cn(C2=C(c3c[nH]c4ccc(C(N)=O)cc34)C(=O)NC2=O)c2ccccc12` is 62-fold lower in IC50: 11800 nM for the first, 190 nM for the second.

Going from `NCCc1cn(C2=C(c3c[nH]c4ccc(Cl)cc34)C(=O)NC2=O)c2ccccc12` to `NCCc1cn(C2=C(c3c[nH]c4ccc(F)cc34)C(=O)NC2=O)c2ccccc12`, the IC50 rises from 10 nM to 38 nM (3.8-fold). The first is the more potent here.

Compared with `Cc1[nH]c2ccccc2c1C1=C(c2cn(CCCN)c3ccccc23)C(=O)NC1=O`, `NCCCn1cc(C2=C(c3c[nH]c4ccccc34)C(=O)NC2=O)c2ccccc21` is 2-fold lower in IC50: 750 nM for the first, 380 nM for the second. The second is the more potent here.

Compared with `CNCCc1cn(C2=C(c3c[nH]c4ccc(C(=O)NC)cc34)C(=O)NC2=O)c2ccccc12`, `CNCCc1cn(C2=C(c3c[nH]c4ccc(C(=O)OC)cc34)C(=O)NC2=O)c2ccccc12` is 13-fold lower in IC50: 280 nM for the first, 21 nM for the second. The second is the more potent here.

Going from `CN(C)CCc1cn(C2=C(c3c[nH]c4ccccc34)C(=O)NC2=O)c2ccccc12` to `CN(C)Cc1cn(C2=C(c3c[nH]c4ccccc34)C(=O)NC2=O)c2ccccc12`, the IC50 rises from 560 nM to 2410 nM (4.3-fold).

Going from `N#Cc1ccc2[nH]cc(C3=C(n4cc(CCN)c5ccccc54)C(=O)NC3=O)c2c1` to `COc1ccc2[nH]cc(C3=C(n4cc(CCN)c5ccccc54)C(=O)NC3=O)c2c1`, the IC50 rises from 46 nM to 170 nM (3.7-fold). The first is the more potent here.

Going from `CNCCc1cn(C2=C(c3c[nH]c4ccc(C(=O)O)cc34)C(=O)NC2=O)c2ccccc12` to `CNCCc1cn(C2=C(c3c[nH]c4ccc(Cl)cc34)C(=O)NC2=O)c2ccccc12`, the IC50 falls from 380 nM to 13 nM (29-fold).

`CNCCc1cn(C2=C(c3c[nH]c4ccccc34)C(=O)NC2=O)c2ccccc12` and `NCCc1cn(C2=C(c3c[nH]c4ccccc34)C(=O)NC2=O)c2ccccc12` are within 1.5-fold of each other in IC50: 150 nM for the first, 110 nM for the second.

First: NCCc1cn(C2=C(c3c[nH]c4ccc(C(F)(F)F)cc34)C(=O)NC2=O)c2ccccc12
Second: CCc1ccc2[nH]cc(C3=C(n4cc(CCNC)c5ccccc54)C(=O)NC3=O)c2c1
The IC50 of the first is 3.4-fold lower: 32 nM for the first, 110 nM for the second. The first is the more potent here.

With `NCCCn1cc(C2=C(n3ccc4ccccc43)C(=O)NC2=O)c2ccccc21` the IC50 was 4560 nM.

target: T1, Calcium/calmodulin-dependent protein kinase type II subunit delta; assay: Inhibition of CaMK2delta using freshly stock solution of compound

`NCCCn1cc(C2=C(c3ccccc3)C(=O)NC2=O)c2ccccc21` and `NCCCn1cc(C2=C(c3csc4ccccc34)C(=O)NC2=O)c2ccccc21` are within 1.5-fold of each other in IC50: 350 nM for the first, 360 nM for the second.

target: T1, Calcium/calmodulin-dependent protein kinase type II subunit delta; assay: Inhibition of CaMK2delta using 3 weeks old stock solution of compound

Compared with `NCCCn1cc(C2=C(c3ccccc3)C(=O)NC2=O)c2ccccc21`, `NCCCn1cc(C2=C(c3csc4ccccc34)C(=O)NC2=O)c2ccccc21` is lower in IC50: 230 nM for the first, under 39 nM for the second. The second is the more potent here.
